Results: patent US20050164924A1, “Method and composition for treating skin wounds with epidermal growth factor” (priority 2002, published 2005)
Where “and” joins values, the source holds several entries; their conditions need not be identical. Equal entries are not always repeated.

Experiments:
corneal and burn wounds = conditions: EGF 10 μg/ml; cited from earlier work
burns = assay: Treating burns with EGF; type: in vivo; conditions: 0.001% (g) of EGF
diabetes ulcers = assay: Individuals suffering from prolonged diabetes ulcers treated with 0.04% hEGF composition; type: in vivo, human; conditions: 0.04% (g/g) hEGF
Description: Three patients suffering from prolonged diabetes ulcers were treated with the composition of this invention containing 0.04% (g/g) hEGF. The following results were observed, with all of the patients were healed after as short as four weeks treatment: […]

[1] = tested on: right facial non-healing ulcer; assay: Individual suffering from prolonged unhealed surgical wound; type: in vivo, human; conditions: Patient D
Text: Patient D was admitted for investigation of right facial non-healing ulcer after extraction of right mandibular molars and excision of facial fistula eleven months ago. […] There was sloughing of the right mandibular alveolus and the wound was tender. […] However, “definitively negative finding for malignancy nor basal cell carcinoma, quite normal looking oral epithelial mucosa” was reported by a pathologist. […] Patient was reviewed after two weeks of hEGF (0.04% (g/g)) local application. The composition is the same as that used in the above Group-3 patients. The right facial wound was healing, base of the wound looked fleshy with no discharge. The wound area decreased in size by about 30%.

diabetic foot ulcer = assay: Randomized double-blind controlled trial of hEGF in diabetic foot ulcer healing; type: in vivo, human; conditions: for 100% Healed Time, mean survival time: Kaplan Meier; for healing rate by the end of 12 weeks: topical daily
Description: A randomized double-blind controlled trial was conducted to study the efficacy of human epidermal growth factor hEGF) in promoting diabetic foot ulcer healing with 88 patients. Predetermined criteria were used for patient selection, they were; ulcer grade 1-2, ulcer located below the ankle, adequate perfusion as indicated by an ankle brachial-index of ≧0.7. Patients were excluded if: sugar control was very poor (HbAlc≧12%), or had severe grade ulcers (≧3). Initial assessment and standard wound care and debridement was given as in an ordinary diabetic foot clinic. The patients were reviewed two weeks later. In the second consultation, patients whose ulcer healed more than 25% with conventional foot ulcer care were excluded. Informed consent was obtained from the remaining patients and randomization was done by drawing envelopes, although the patients were blind to the concentrations of hEGF during the experiments. The final candidates were randomly assigned into three groups: • 1. Group 1 were treated with Acetovegin® 5% cream alone, which has the following compositions as indicated in the package of the cream: 1 g of cream contains 2 mg (corresponding to dry mass) of deproteinized hemoderivative of calf blood, and 0.2 mg of benzalkonium chloride. There was no particular reason in choosing Acetovegin® 5% cream as the control other than this cream was available at the clinic where the experiments were conducted. • 2. Group 2 patients were treated with Acetovegin® 5% cream (with composition as stated above) plus 0.02% (g/g) hEGF. • 3. Group 3 patients were treated with Acetovegin® 5% cream (with composition as stated above) plus 0.04% (g/g) hEGF. All patients were followed up on a biweekly bass for wound care and debridement and trimming of keratosis. Antibiotic would be given if it was infected as indicated by purulent discharge or by positive bacterial culture. Photos of the wound's size were being taken for computer measurement and comparing with a reference area having a known size. Local application of study cream was applied and covered with sterile gauze. Patients were instructed to have daily normal saline dressing and local application of cream in the government out-patient-clinic or community nurse would be asked to have home visit for those with ambulatory problem. Wound parameters, such as exudates sign of infection granulation tissue and eschar were documented in each visit and complete healing was defined as full epithelialization of the wound with absence of discharge. Analysis was based on intention to treat and Kaplan Meier survival analysis was employed to compare the healing rate between different groups. One way ANOVA was used for clinical parameters analysis. If more than one wound was present in one patient the total areas of the ulcers was taken together and treated as one single wound. Of the 30 patients that suffered from unhealed ulcers they were randomly assigned into 3 groups as stated above: Group-1 (9/30), the control, was treated with Acetovegin® 5% cream alone; Group-2 (9/30) was treated with Acetovegin® 5% cream plus 0.02% (g/g) hEGF; Group-3, (14/32) Acetovegin® 5% cream plus 0.04% (g/g) hEGF. The end point of a treatment was defined as complete closure of the wound, whereas failure to heal was defined as incomplete healing after 12 weeks of treatment. The experiment in Example 1 was repeated using Acetovegin® 5% cream plus 0.03% (g/g) hEGF. 8 patients, named Group-4, were treated.

venous stasis ulcers = conditions: EGF 10 μg/ml; cited from earlier work
bedsore = assay: Individual suffering from bedsore; type: in vivo, human; conditions: 0.04% (g/g) EGF daily with normal saline dressing, after three-month treatment
Description: Patient B was bedridden at aged home for several years. […] They were referred to medical because the wound got worse with central grangrene after a two-month treatment.
They were then treated with Hibitane dressing for two weeks then normal saline dressing with the composition of this invention containing 0.04% (g/g) EGF daily.

[2] = Patient A, after 2 weeks treatment
[3] = Patient A, after 3 weeks treatment
[4] = Patient B, after 3 weeks treatment
[5] = Patient B, after 5 weeks treatment
[6] = Patient B, after 9 weeks treatment
[7] = Patient C, after 4 weeks treatment
[8] = Patient C, after 6 weeks treatment

human epidermal growth factor [hEGF]
healing of corneal and burn wounds (corneal and burn wounds): promote healing | effect on wound healing of burns (burns): effective in accelerating wound healing | Healing Rate (diabetes ulcers; [2]): 36.25% | Ulcer Area (diabetes ulcers; [2]): 1.02 cm^2 | Healing Rate (diabetes ulcers; [3]): 100% | Ulcer Area (diabetes ulcers; [3]): 0 cm^2 | Healing Rate (diabetes ulcers; [4]): 43.18% | Ulcer Area (diabetes ulcers; [4]): 3.79 cm^2 | Healing Rate (diabetes ulcers; [5]): 75.71% | Ulcer Area (diabetes ulcers; [5]): 1.62 cm^2 | Healing Rate (diabetes ulcers; [6]): 97.60% | Ulcer Area (diabetes ulcers; [6]): 0.16 cm^2 | Healing Rate (diabetes ulcers; [7]): 89.34% | Ulcer Area (diabetes ulcers; [7]): 1.41 cm^2 | Healing Rate (diabetes ulcers; [8]): 100% | Ulcer Area (diabetes ulcers; [8]): 0 cm^2 | decrease of wound area in size ([1]; 0.04% (g/g) hEGF local application, after two weeks): about 30% | reduction of wound in size ([1]; 0.04% hEGF applied locally, after 5 weeks): approximately 50% | total healing outcome (diabetic foot ulcer; 0.02% (g/g) EGF): may fail to achieve totally healing in some cases | reduction of the time required to achieve 50% healing (diabetic foot ulcer; 0.02% (g/g) or 0.04% (g/g) EGF): 2-4 weeks | results compared with 0.04% (g/g) EGF (diabetic foot ulcer; 0.03% (g/g) EGF): almost indistinguishable | total healing outcome (diabetic foot ulcer; 0.04% (g/g) EGF): all of the patients were totally healed after 12 wee | 50% Healed Time, mean survival time (diabetic foot ulcer; Group-2, 0.02% (g/g) hEGF): 5.71±1.02 weeks and 5.71 weeks | 50% Healed Time, median survival time (diabetic foot ulcer; Group-2, 0.02% (g/g) hEGF): 6.00 weeks | 100% Healed Time, mean survival time (diabetic foot ulcer; Group-2, 0.02% (g/g) hEGF): 9.43±1.38 weeks and 9.43 weeks | 100% Healed Time, median survival time (diabetic foot ulcer; Group-2, 0.02% (g/g) hEGF, limited to 12 weeks): 12.00 weeks | healing rate by the end of 12 weeks (diabetic foot ulcer; Group-2: Acetovegin 5% cream plus 0.02% (g/g) hEGF): 55% | 50% Healed Time, mean survival time (diabetic foot ulcer; Group-3, 0.04% (g/g) hEGF): 4.50±0.82 weeks and 4.50 weeks | 50% Healed Time, median survival time (diabetic foot ulcer; Group-3, 0.04% (g/g) hEGF): 4.00 weeks | 100% Healed Time, median survival time (diabetic foot ulcer; Group-3, 0.04% (g/g) hEGF): 6.00 weeks | 100% Healed Time, mean survival time (diabetic foot ulcer; Group-3, 0.04% (g/g) hEGF): 6.67 weeks | healing rate by the end of 12 weeks (diabetic foot ulcer; Group-3: Acetovegin 5% cream plus 0.04% (g/g) hEGF): 100% | 100% healing time, median survival time (diabetic foot ulcer; Group-4, 0.03% (g/g) hEGF): 6 weeks | Cumulative Survival (unhealed fraction) (diabetic foot ulcer; Group-4, 0.03% (g/g) hEGF, 2 weeks): 0.8750 | Cumulative Survival (unhealed fraction) (diabetic foot ulcer; Group-4, 0.03% (g/g) hEGF, 4 weeks): 0.6250 | Cumulative Survival (unhealed fraction) (diabetic foot ulcer; Group-4, 0.03% (g/g) hEGF, 6 weeks): 0.5000 | Cumulative Survival (unhealed fraction) (diabetic foot ulcer; Group-4, 0.03% (g/g) hEGF, 8 weeks): 0.3750 | Cumulative Survival (unhealed fraction) (diabetic foot ulcer; Group-4, 0.03% (g/g) hEGF, 10 weeks): 0.2500 | Cumulative Survival (unhealed fraction) (diabetic foot ulcer; Group-4, 0.03% (g/g) hEGF, 12 weeks): 0.1250 | 100% healing time, mean survival time (limited to 12) (diabetic foot ulcer; Group-4, Acetovegin 5% cream plus 0.03% (g/g) hEGF): 7 weeks | epithelization in wounds of patients with venous stasis ulcers (venous stasis ulcers): failed to promote epithelization | wound outcome (bedsore): healed and completely closed
